Reference: US20160257697A1, “THIOPHENE-SUBSTITUTED TETRACYCLIC COMPOUNDS AND METHODS OFUSE THEREOF FOR THE TREATMENT OF VIRAL DISEASES” (priority 2013, published 2016)
pIC50: −log10 of the molar value. Read-outs that look alike come from different tables or passages of the source.

Tests used:
Assay in all cases: microbe, parasite or virus in culture
Format in all cases: cell-based, Hepatitis C virus (HCV)
[1] = tested on: HCV replicon 1AY93H
Outline: (§1)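 Three-day treatment of replicon cells (2000/well, 5% FBS, 0.5% DMSO), followed by TaqMan RT-PCR of replicon RNA with cyclophilin as internal control.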

[2] = tested on: HCV replicon 1A; conditions: Replicon Assay A
Outline: as §1

[3] = tested on: HCV replicon 2B
Outline: as §1

[4] = tested on: HCV replicon 1AQ30D; conditions: Replicon Assay B; for IC50: read-out: 1A Q30D IC50 (nM), replicon 1AQ30D
[5] = tested on: HCV replicon 1B; conditions: Replicon Assay B
[6] = read-out: 1A Y93H IC50; HCV replicon 1A Y93H; Replicon Assay A
[7] = read-out: 2B IC50; HCV replicon 2B; Replicon Assay A
[8] = read-out: 1A Q30D IC50, HCV replicon 1A Q30D
[9] = read-out: 1A Y93H IC50; replicon 1AY93H; Replicon Assay A
[10] = read-out: 2B IC50; replicon 2B; Replicon Assay A
[11] = read-out: 1A Q30D IC50, replicon 1AQ30D
[12] = Hepatitis C virus, read-out: 1A Y93H IC50 (nM), replicon 1AY93H; Replicon Assay A
[13] = Hepatitis C virus, read-out: 2B IC50 (nM), replicon 2B; Replicon Assay A
[14] = replicon 1AY93H; Replicon Assay A; read-out: 1A Y93H IC50
[15] = replicon 2B; Replicon Assay A; read-out: 2B IC50
[16] = replicon 1AQ30D, read-out: 1A Q30D IC50

Structure (SMILES)	pIC50 [1, 9]	pIC50 ([2]; replicon 1A)	pIC50 [3, 10]	pIC50 ([5]; replicon 1B)	IC50 ([4]; Hepatitis C virus)	pIC50 ([5]; Hepatitis C virus, replicon 1B)	further results
COC(=O)N[C@H](C(=O)N1CCC[C@H]1c1ncc(-c2ccc3c(c2)OC(c2ccc(C4CC4)s2)n2c-3c(F)c3cc(-c4cnc([C@@H]5C[C@H]6C[C@H]6N5C(=O)[C@@H](NC(=O)OC)C(C)C)[nH]4)ccc32)[nH]1)C(C)C (single isomer, unassigned) [Compound 613]							pIC50 [1, 6]: 10.80; pIC50 ([2]; HCV replicon 1A): 11.60; pIC50 [3, 7]: 9.47; pIC50 [4, 8]: 9.00; pIC50 ([5]; HCV replicon 1B): 11.64
CCc1ccc(C2Oc3cc(-c4cnc([C@@H]5CCCN5C(=O)C(NC(=O)OC)C5CCOC(C)(C)C5)[nH]4)cc(F)c3-c3cc4cc(-c5cnc([C@@H]6CCCN6C(=O)C(NC(=O)OC)C6CCOC(C)(C)C6)[nH]5)ccc4n32)s1 (single isomer, unassigned) [Compound 296]	11.70	11.55	11.30	11.48			pIC50 [4, 11]: 11.30
COC(=O)N[C@H](C(=O)N1CCC[C@H]1c1ncc(-c2cc(F)c3c(c2)OC(c2ccc(CC(F)(F)F)s2)n2c-3cc3cc(-c4cnc([C@@H]5CCCN5C(=O)[C@@H](NC(=O)OC)C(C)C)[nH]4)ccc32)[nH]1)C(C)C (stereo partly drawn) [Compound 125]					0.29 nM	11.89	IC50 [1, 12]: 0.018 nM; pIC50 ([2]; Hepatitis C virus, replicon 1A): 11.64; IC50 [3, 13]: 0.089 nM
COC(=O)N[C@H](C(=O)N1CCC[C@H]1c1ncc(-c2cc(F)c3c(c2)OC(c2ccc(C4(O)CC4)s2)n2c-3cc3cc(-c4cnc([C@@H]5CCCN5C(=O)[C@@H](NC(=O)OC)C(C)C)[nH]4)ccc32)[nH]1)C(C)C (single isomer, unassigned) [Compound 60]					0.35 nM	11.89	IC50 [1, 12]: 0.014 nM; pIC50 ([2]; Hepatitis C virus, replicon 1A): 11.82; IC50 [3, 13]: 0.023 nM
COC(=O)N[C@H](C(=O)N1CCC[C@H]1c1ncc(-c2cc(F)c3c(c2)OC(c2cc4c(s2)CCC4)n2c-3cc3cc(-c4cnc([C@@H]5C[C@H]6C[C@H]6N5C(=O)[C@@H](NC(=O)OC)C5CCOCC5)[nH]4)ccc32)[nH]1)C(C)C (single isomer, unassigned) [Compound 541]							pIC50 [1, 6]: 8.66; pIC50 ([2]; HCV replicon 1A): 10.83; pIC50 [3, 7]: 10.02; pIC50 ([4]; Hepatitis C virus, read-out: 1A Q30D IC50, HCV replicon 1A Q30D): 9.52; pIC50 ([5]; HCV replicon 1B): 10.63
COC(=O)N[C@H](C(=O)N1CCC[C@H]1c1ncc(-c2cc(F)c3c(c2)OC(c2ccc(CC4CC4)s2)n2c-3cc3cc(-c4cnc([C@@H]5C[C@H]6C[C@H]6N5C(=O)[C@@H](NC(=O)OC)C(C)C)[nH]4)ccc32)[nH]1)C(C)C (single isomer, unassigned) [Compound 389]	10.86		10.16		0.23 nM	11.41	pIC50 ([2]; Hepatitis C virus, replicon 1A): 11.57
CCc1ccc(C2Oc3cc(-c4cnc([C@@H]5CCCN5C(=O)[C@@H](NC(=O)OC)C(C)C)[nH]4)cc(F)c3-c3cc4cc(-c5cnc([C@@H]6CCCN6C(=O)[C@@H](NC(=O)OC)C(C)C)[nH]5)ccc4n32)s1 (stereo partly drawn) [Compound 4]					0.347 nM	11.70	IC50 [1, 12]: 0.01 nM; pIC50 ([2]; Hepatitis C virus, replicon 1A): 11.66; IC50 [3, 13]: 0.055 nM
COC(=O)N[C@H](C(=O)N1CCC[C@H]1c1ncc(-c2cc(C)c3c(c2)OC(c2ccc(C4CC4)s2)n2c-3cc3cc(-c4cnc([C@@H]5C[C@H]6C[C@H]6N5C(=O)[C@@H](NC(=O)OC)C5CCOCC5)[nH]4)ccc32)[nH]1)C(C)C (single isomer, unassigned) [Compound 764]							pIC50 [1, 6]: 11.36; pIC50 ([2]; HCV replicon 1A): 11.44; pIC50 [3, 7]: 11.28; pIC50 [4, 8]: 10.62; pIC50 ([5]; HCV replicon 1B): 11.66
COC(=O)NC(C(=O)N1CCC[C@H]1c1ncc(-c2cc(F)c3c(c2)OC(c2ccc(C)s2)n2c-3cc3cc(-c4cnc([C@@H]5CCCN5C(=O)[C@@H](NC(=O)OC)C5CCOCC5)[nH]4)ccc32)[nH]1)C(C)(C)F (single isomer, unassigned) [Compound 108]	9.60	11.59	9.54	11.57			pIC50 [4, 11]: 8.94
COC(=O)NC(C(=O)N1CCC[C@H]1c1ncc(-c2ccc3c(c2)cc2n3C(c3cc4ccccc4s3)Oc3cc(-c4cnc([C@@H]5CCCN5C(=O)[C@@H](NC(=O)OC)C5CCOCC5)[nH]4)cc(F)c3-2)[nH]1)C(C)(C)F (single isomer, unassigned) [Compound 185]	8.62	11.34	8.87	11.59			pIC50 [4, 11]: 8.53
COC(=O)N[C@H](C(=O)N1CCC[C@H]1c1ncc(-c2cc(F)c3c(c2)OC(c2ccc(C(=O)N(C)C)s2)n2c-3cc3cc(-c4cnc([C@@H]5CCCN5C(=O)[C@@H](NC(=O)OC)C(C)C)[nH]4)ccc32)[nH]1)C(C)C (single isomer, unassigned) [Compound 104]	10.34	11.37	10.14		1.11 nM	11.29	
COC(=O)N[C@H](C(=O)N1CCC[C@H]1c1ncc(-c2cc(F)c3c(c2)OC(c2ccc(C(C)(C)C)s2)n2c-3cc3cc(-c4cnc([C@@H]5CCCN5C(=O)[C@@H](NC(=O)OC)C(C)C)[nH]4)ccc32)[nH]1)C(C)C (single isomer, unassigned) [Compound 63]		11.49		11.62			pIC50 [1, 14]: 11.00; pIC50 [3, 15]: 9.57; pIC50 [4, 16]: 9.47
COC(=O)N[C@H](C(=O)N1CCC[C@H]1c1ncc(-c2cc(F)c3c(c2)OC(c2ccc(C#CC4CC4)s2)n2c-3cc3cc(-c4cnc([C@@H]5CCCN5C(=O)[C@@H](NC(=O)OC)C(C)C)[nH]4)ccc32)[nH]1)C(C)C (single isomer, unassigned) [Compound 86]	11.52	11.80	10.48		0.11 nM	11.80	
COC(=O)NC(C(=O)N1CCC[C@H]1c1ncc(-c2cc(F)c3c(c2)OC(c2ccc(C4CC4)s2)n2c-3cc3cc(-c4cnc([C@@H]5CCCN5C(=O)C(NC(=O)OC)C5C[C@@H](C)O[C@@H](C)C5)[nH]4)ccc32)[nH]1)C1C[C@@H](C)O[C@@H](C)C1 (single isomer, unassigned) [Compound 301]	9.96	11.60			0.33 nM	11.70	IC50 [3, 13]: 0.037 nM
COC(=O)N[C@H](C(=O)N1CCC[C@H]1c1ncc(-c2cc(F)c3c(c2)OC(c2ccc(C(F)F)s2)n2c-3cc3cc(-c4cnc([C@@H]5CCCN5C(=O)[C@@H](NC(=O)OC)C(C)C)[nH]4)ccc32)[nH]1)C(C)C (single isomer, unassigned) [Compound 45]		11.96		11.96			pIC50 [1, 14]: 11.00; pIC50 [3, 15]: 10.36; pIC50 [4, 16]: 9.43
COC(=O)NC(C(=O)N1CCC[C@H]1c1ncc(-c2ccc3c(c2)cc2n3C(c3ccc(C4CC4)s3)Oc3cc(-c4cnc([C@@H]5CCCN5C(=O)C(NC(=O)OC)C(C)(C)F)[nH]4)cc(F)c3-2)[nH]1)C1C[C@@H](C)O[C@@H](C)C1 (single isomer, unassigned) [Compound 379]					0.798 nM	11.96	IC50 [1, 12]: 0.0803 nM; pIC50 ([2]; Hepatitis C virus, replicon 1A): 11.66; IC50 [3, 13]: 0.178 nM
COC(=O)N[C@H](C(=O)N1CCC[C@H]1c1ncc(-c2cc(F)c3c(c2)OC(c2ccc(C4CC4)s2)n2c-3cc3cc(-c4cnc([C@@H]5CCCN5C(=O)[C@@H](NC(=O)OC)C5CCOCC5)[nH]4)ccc32)[nH]1)C1CCOCC1 (single isomer, unassigned) [Compound 280]	11.52	11.68	11.52	11.59			pIC50 [4, 11]: 11.30
COC(=O)NC(C(=O)N1[C@@H]2C[C@@H]2C[C@H]1c1ncc(-c2ccc3c(c2)c(F)c2n3C(c3ccc(C4CC4)s3)Oc3cc(-c4cnc([C@@H]5CCCN5C(=O)[C@@H](NC(=O)OC)C(C)C)[nH]4)ccc3-2)[nH]1)C1C[C@@H](C)O[C@@H](C)C1 (single isomer, unassigned) [Compound 644]							pIC50 [1, 6]: 11.30; pIC50 ([2]; HCV replicon 1A): 11.59; pIC50 [3, 7]: 10.57; pIC50 [4, 8]: 10.05; pIC50 ([5]; Hepatitis C virus, HCV replicon 1B): 11.89
COC(=O)NC(C(=O)N1CCC[C@H]1c1ncc(-c2ccc3c(c2)cc2n3C(c3ccc(C4CC4)s3)Oc3cc(-c4cnc([C@@H]5CCCN5C(=O)[C@@H](NC(=O)OC)C5CCOCC5)[nH]4)cc(F)c3-2)[nH]1)C(C)(C)F (single isomer, unassigned) [Compound 173]	10.01	11.77	9.46	11.68			pIC50 [4, 11]: 9.55
COC(=O)NC(C(=O)N1CCC[C@H]1c1ncc(-c2ccc3c(c2)cc2n3C(c3ccc(C4CC4)s3)Oc3cc(-c4cnc([C@@H]5CCCN5C(=O)[C@@H](NC(=O)OC)C(C)C)[nH]4)cc(F)c3-2)[nH]1)C1C[C@@H](C)O[C@@H](C)C1 (single isomer, unassigned) [Compound 206]					2.91 nM	11.59	IC50 [1, 12]: 0.16 nM; pIC50 ([2]; Hepatitis C virus, replicon 1A): 11.85; IC50 [3, 13]: 0.16 nM
CCCc1ccc(C2Oc3cc(-c4cnc([C@@H]5CCCN5C(=O)[C@@H](NC(=O)OC)C(C)C)[nH]4)cc(F)c3-c3cc4cc(-c5cnc([C@@H]6CCCN6C(=O)C(NC(=O)OC)C6C[C@@H](C)O[C@@H](C)C6)[nH]5)ccc4n32)s1 (single isomer, unassigned) [Compound 370]	11.66	11.85	11.18	11.70			pIC50 [4, 11]: 10.34
